Source: patent US12077503B2, “Substituted cyclic amides and their use as herbicides” (FMC CORPORATION, priority 2015, dated 2024)

Key:
Type in all cases: in vivo
[1] = tested on: velvetleaf (Abutilon theophrasti); assay: Test G Post-Emergence Protocol; conditions: Abutilon theophrasti, post-emergence, 312 h; for pest or weed control at 15.625 g/ha: 15.625 g ai/ha, evaluated after 13 days (100=total damage to plant; 0=no damage to plant), read-out: Velvetleaf damage rating; for pest or weed control at 62.5 g/ha: 62.5 g ai/ha, read-out: Velvetleaf damage rating (100=total damage to plant; 0=no damage to plant); for pest or weed control at 62.5 g/ha / pest or weed control at 250 g/ha: evaluated after 13 days; for pest or weed control at 250 g/ha: 250 g ai/ha, read-out: damage to plant, Velvetleaf (100=total damage to plant; 0=no damage to plant)
How it was run: (§1)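 Foliar application was made 8 days after sowing, using an aqueous spray of the active in acetone/water (50:50) with 0.5% Tween 20, at doses of 15.625, 62.5 or 250 g/ha. Injury was assessed 13 days later, where 100 meant the plant was fully damaged.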

[2] = tested on: barnyardgrass (Echinochloa crus-galli); assay: Test G Post-Emergence Protocol; conditions: Echinochloa crus-galli, post-emergence, 312 h; for pest or weed control at 15.625 g/ha: 15.625 g ai/ha, evaluated after 13 days (100=total damage to plant; 0=no damage to plant), read-out: Barnyardgrass damage rating; for pest or weed control at 62.5 g/ha: 62.5 g ai/ha, read-out: Barnyardgrass damage rating (100=total damage to plant; 0=no damage to plant); for pest or weed control at 62.5 g/ha / pest or weed control at 250 g/ha: evaluated after 13 days; for pest or weed control at 250 g/ha: 250 g ai/ha, read-out: damage to plant, Barnyardgrass (100=total damage to plant; 0=no damage to plant)
How it was run: as §1

[3] = tested on: ivy-leaved morning glory (Ipomoea hederacea); assay: Test G Post-Emergence Protocol; conditions: Ipomoea, post-emergence, 312 h; for pest or weed control at 15.625 g/ha: 15.625 g ai/ha, evaluated after 13 days (100=total damage to plant; 0=no damage to plant), read-out: Morningglory, Ivy-leaved damage rating; for pest or weed control at 62.5 g/ha: 62.5 g ai/ha, read-out: Morningglory, Ivy-leaved damage rating (100=total damage to plant; 0=no damage to plant); for pest or weed control at 62.5 g/ha / pest or weed control at 250 g/ha: evaluated after 13 days; for pest or weed control at 250 g/ha: 250 g ai/ha, read-out: damage to plant, Morningglory, Ivy-leaved (100=total damage to plant; 0=no damage to plant)
How it was run: as §1

corn (Zea mays) [4] = assay: Test G Post-Emergence Protocol; conditions: Zea mays, post-emergence, 312 h; for plant injury at 15.625 g/ha: 15.625 g ai/ha, evaluated after 13 days (100=total damage to plant; 0=no damage to plant), read-out: Corn damage rating; for plant injury at 62.5 g/ha: 62.5 g ai/ha, read-out: Corn damage rating (100=total damage to plant; 0=no damage to plant); for plant injury at 62.5 g/ha / plant injury at 250 g/ha: evaluated after 13 days; for plant injury at 250 g/ha: 250 g ai/ha, read-out: damage to plant, Corn (100=total damage to plant; 0=no damage to plant)
How it was run: as §1

[5] = tested on: giant foxtail (Setaria faberi); assay: Test G Post-Emergence Protocol; conditions: Setaria faberi, post-emergence, 312 h; for pest or weed control at 15.625 g/ha: 15.625 g ai/ha, evaluated after 13 days (100=total damage to plant; 0=no damage to plant), read-out: Foxtail, Giant damage rating; for pest or weed control at 62.5 g/ha: 62.5 g ai/ha, read-out: Foxtail, Giant damage rating (100=total damage to plant; 0=no damage to plant); for pest or weed control at 62.5 g/ha / pest or weed control at 250 g/ha: evaluated after 13 days; for pest or weed control at 250 g/ha: 250 g ai/ha, read-out: damage to plant, Foxtail, Giant (100=total damage to plant; 0=no damage to plant)
How it was run: as §1

[6] = tested on: redroot pigweed (Amaranthus retroflexus); assay: Test G Post-Emergence Protocol; conditions: Amaranthus retroflexus, post-emergence, 312 h; for pest or weed control at 15.625 g/ha: 15.625 g ai/ha, evaluated after 13 days (100=total damage to plant; 0=no damage to plant), read-out: Pigweed, Redroot damage rating; for pest or weed control at 62.5 g/ha: 62.5 g ai/ha, read-out: Pigweed, Redroot damage rating (100=total damage to plant; 0=no damage to plant); for pest or weed control at 62.5 g/ha / pest or weed control at 250 g/ha: evaluated after 13 days; for pest or weed control at 250 g/ha: 250 g ai/ha, read-out: damage to plant, Pigweed, Redroot (100=total damage to plant; 0=no damage to plant)
How it was run: as §1

[7] = tested on: velvetleaf (Abutilon theophrasti); assay: Test G Pre-Emergence Protocol; conditions: Abutilon theophrasti, pre-emergence, 312 h, evaluated after 13 days; for pest or weed control at 15.625 g/ha: 15.625 g ai/ha; for pest or weed control at 15.625 g/ha / pest or weed control at 250 g/ha: read-out: Velvetleaf damage rating (100=total damage to plant; 0=no damage to plant); for pest or weed control at 62.5 g/ha: 62.5 g ai/ha, 100=total damage to plant, 0=no damage to plant, read-out: plant damage rating, Velvetleaf; for pest or weed control at 250 g/ha: 250 g ai/ha
How it was run: (§2)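 Glasshouse pre-emergence test: soil-sown seeds, sprayed after 1 d at 15.625, 62.5 or 250 g/ha. Conditions 24/16° C day/night, 14 h light, 65% humidity, watering twice daily. Rating 13 d post-spray (100 = total damage).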

[8] = tested on: barnyardgrass (Echinochloa crus-galli); assay: Test G Pre-Emergence Protocol; conditions: Echinochloa crus-galli, pre-emergence, 312 h, evaluated after 13 days; for pest or weed control at 15.625 g/ha: 15.625 g ai/ha, read-out: Barnyard grass damage rating (100=total damage to plant; 0=no damage to plant); for pest or weed control at 62.5 g/ha: 62.5 g ai/ha, 100=total damage to plant, 0=no damage to plant, read-out: plant damage rating, Barnyardgrass; for pest or weed control at 250 g/ha: 250 g ai/ha, read-out: Barnyardgrass damage rating (100=total damage to plant; 0=no damage to plant)
How it was run: as §2

[9] = tested on: ivy-leaved morning glory (Ipomoea hederacea); assay: Test G Pre-Emergence Protocol; conditions: Ipomoea, pre-emergence, 312 h, evaluated after 13 days; for pest or weed control at 15.625 g/ha: 15.625 g ai/ha, read-out: Morning-glory, Ivy-leaved damage rating (100=total damage to plant; 0=no damage to plant); for pest or weed control at 62.5 g/ha: 62.5 g ai/ha, 100=total damage to plant, 0=no damage to plant, read-out: plant damage rating, Morningglory, Ivy-leaved; for pest or weed control at 250 g/ha: 250 g ai/ha, read-out: Morningglory, Ivy-leaved damage rating (100=total damage to plant; 0=no damage to plant)
How it was run: as §2

corn (Zea mays) [10] = assay: Test G Pre-Emergence Protocol; conditions: Zea mays, pre-emergence, 312 h, evaluated after 13 days; for plant injury at 15.625 g/ha: 15.625 g ai/ha; for plant injury at 15.625 g/ha / plant injury at 250 g/ha: read-out: Corn damage rating (100=total damage to plant; 0=no damage to plant); for plant injury at 62.5 g/ha: 62.5 g ai/ha, 100=total damage to plant, 0=no damage to plant, read-out: plant damage rating, Corn; for plant injury at 250 g/ha: 250 g ai/ha
How it was run: as §2

[11] = tested on: giant foxtail (Setaria faberi); assay: Test G Pre-Emergence Protocol; conditions: Setaria faberi, pre-emergence, 312 h, evaluated after 13 days; for pest or weed control at 15.625 g/ha: 15.625 g ai/ha; for pest or weed control at 15.625 g/ha / pest or weed control at 250 g/ha: read-out: Foxtail, Giant damage rating (100=total damage to plant; 0=no damage to plant); for pest or weed control at 62.5 g/ha: 62.5 g ai/ha, 100=total damage to plant, 0=no damage to plant, read-out: plant damage rating, Foxtail, Giant; for pest or weed control at 250 g/ha: 250 g ai/ha
How it was run: as §2

[12] = tested on: redroot pigweed (Amaranthus retroflexus); assay: Test G Pre-Emergence Protocol; conditions: Amaranthus retroflexus, pre-emergence, 312 h, evaluated after 13 days; for pest or weed control at 15.625 g/ha: 15.625 g ai/ha; for pest or weed control at 15.625 g/ha / pest or weed control at 250 g/ha: read-out: Pigweed, Redroot damage rating (100=total damage to plant; 0=no damage to plant); for pest or weed control at 62.5 g/ha: 62.5 g ai/ha, 100=total damage to plant, 0=no damage to plant, read-out: plant damage rating, Pigweed, Redroot; for pest or weed control at 250 g/ha: 250 g ai/ha
How it was run: as §2

SMILES	pest or weed control at 15.625 g/ha [1]	pest or weed control at 62.5 g/ha [1]	pest or weed control at 250 g/ha [1]	pest or weed control at 15.625 g/ha [2]	pest or weed control at 62.5 g/ha [2]	pest or weed control at 250 g/ha [2]	pest or weed control at 15.625 g/ha [3]	pest or weed control at 62.5 g/ha [3]	pest or weed control at 250 g/ha [3]	plant injury at 15.625 g/ha (corn (Zea mays) [4])	plant injury at 62.5 g/ha (corn (Zea mays) [4])	plant injury at 250 g/ha (corn (Zea mays) [4])	pest or weed control at 15.625 g/ha [5]	pest or weed control at 62.5 g/ha [5]	pest or weed control at 250 g/ha [5]	pest or weed control at 15.625 g/ha [6]	pest or weed control at 62.5 g/ha [6]	pest or weed control at 250 g/ha [6]	pest or weed control at 15.625 g/ha [7]	pest or weed control at 62.5 g/ha [7]	further results
CN1C[C@@H](c2ccc(C(F)(F)F)cc2)[C@H](C(=O)Nc2cc(Cl)n[nH]2)C1=O (racemic) [Compound 1632]	0%	0%	0%	0%	0%	10%	0%	0%	0%	0%	0%	0%	0%	0%	20%	0%	0%	20%	0%	0%	pest or weed control at 250 g/ha [7]: 0%; pest or weed control at 15.625 g/ha [8]: 0%; pest or weed control at 62.5 g/ha [8]: 0%; pest or weed control at 250 g/ha [8]: 0%; pest or weed control at 15.625 g/ha [9]: 0%; pest or weed control at 62.5 g/ha [9]: 0%; pest or weed control at 250 g/ha [9]: 0%; plant injury at 15.625 g/ha (corn (Zea mays) [10]): 0%; plant injury at 62.5 g/ha (corn (Zea mays) [10]): 0%; plant injury at 250 g/ha (corn (Zea mays) [10]): 0%; pest or weed control at 15.625 g/ha [11]: 0%; pest or weed control at 62.5 g/ha [11]: 0%; pest or weed control at 250 g/ha [11]: 0%; pest or weed control at 15.625 g/ha [12]: 0%; pest or weed control at 62.5 g/ha [12]: 0%; pest or weed control at 250 g/ha [12]: 0%
Cc1cccnc1NC(=O)C1C(=O)N(C)CC1c1ccc(C(F)(F)F)cc1 (stereo not drawn) [Compound 1437]	0%	0%	0%	0%	0%	0%	0%	0%	0%	0%	0%	0%	0%	0%	0%	0%	0%	0%	0%	0%	pest or weed control at 250 g/ha [7]: 0%; pest or weed control at 15.625 g/ha [8]: 0%; pest or weed control at 62.5 g/ha [8]: 0%; pest or weed control at 250 g/ha [8]: 0%; pest or weed control at 15.625 g/ha [9]: 0%; pest or weed control at 62.5 g/ha [9]: 0%; pest or weed control at 250 g/ha [9]: 0%; plant injury at 15.625 g/ha (corn (Zea mays) [10]): 0%; plant injury at 62.5 g/ha (corn (Zea mays) [10]): 0%; plant injury at 250 g/ha (corn (Zea mays) [10]): 0%; pest or weed control at 15.625 g/ha [11]: 0%; pest or weed control at 62.5 g/ha [11]: 0%; pest or weed control at 250 g/ha [11]: 0%; pest or weed control at 15.625 g/ha [12]: 0%; pest or weed control at 62.5 g/ha [12]: 0%; pest or weed control at 250 g/ha [12]: 0%
COc1cccc(NC(=O)[C@@H]2C(=O)N(C)C[C@H]2c2ccc(C(F)(F)F)cc2)n1 (racemic) [Compound 1601]	0%	20%	50%	0%	40%	70%	0%	10%	30%	0%	10%	30%	0%	80%	70%	0%	10%	30%	0%	0%	pest or weed control at 250 g/ha [7]: 0%; pest or weed control at 15.625 g/ha [8]: 0%; pest or weed control at 62.5 g/ha [8]: 10%; pest or weed control at 250 g/ha [8]: 70%; pest or weed control at 15.625 g/ha [9]: 0%; pest or weed control at 62.5 g/ha [9]: 0%; pest or weed control at 250 g/ha [9]: 0%; plant injury at 15.625 g/ha (corn (Zea mays) [10]): 0%; plant injury at 62.5 g/ha (corn (Zea mays) [10]): 0%; plant injury at 250 g/ha (corn (Zea mays) [10]): 0%; pest or weed control at 15.625 g/ha [11]: 0%; pest or weed control at 62.5 g/ha [11]: 20%; pest or weed control at 250 g/ha [11]: 80%; pest or weed control at 15.625 g/ha [12]: 0%; pest or weed control at 62.5 g/ha [12]: 0%; pest or weed control at 250 g/ha [12]: 50%
